The source of these data is US20260265233A1, “BENZOTHIOPHENE DERIVATIVES AS RXFP1 AGONISTS” (BRISTOL-MYERS SQUIBB COMPANY, priority 2021, published 2026).

One may read the EC50 as the concentration needed to bring the measured effect to its halfway point. A low value points to an effect from little substance.

SMILES strings stand for the structures.

The test concerns the target T1, human RXFP1 (Homo sapiens, UniProt Q9HBX9).
T1 construct: expressed in transfected cells
T1 sequence (Q9HBX9 1-757): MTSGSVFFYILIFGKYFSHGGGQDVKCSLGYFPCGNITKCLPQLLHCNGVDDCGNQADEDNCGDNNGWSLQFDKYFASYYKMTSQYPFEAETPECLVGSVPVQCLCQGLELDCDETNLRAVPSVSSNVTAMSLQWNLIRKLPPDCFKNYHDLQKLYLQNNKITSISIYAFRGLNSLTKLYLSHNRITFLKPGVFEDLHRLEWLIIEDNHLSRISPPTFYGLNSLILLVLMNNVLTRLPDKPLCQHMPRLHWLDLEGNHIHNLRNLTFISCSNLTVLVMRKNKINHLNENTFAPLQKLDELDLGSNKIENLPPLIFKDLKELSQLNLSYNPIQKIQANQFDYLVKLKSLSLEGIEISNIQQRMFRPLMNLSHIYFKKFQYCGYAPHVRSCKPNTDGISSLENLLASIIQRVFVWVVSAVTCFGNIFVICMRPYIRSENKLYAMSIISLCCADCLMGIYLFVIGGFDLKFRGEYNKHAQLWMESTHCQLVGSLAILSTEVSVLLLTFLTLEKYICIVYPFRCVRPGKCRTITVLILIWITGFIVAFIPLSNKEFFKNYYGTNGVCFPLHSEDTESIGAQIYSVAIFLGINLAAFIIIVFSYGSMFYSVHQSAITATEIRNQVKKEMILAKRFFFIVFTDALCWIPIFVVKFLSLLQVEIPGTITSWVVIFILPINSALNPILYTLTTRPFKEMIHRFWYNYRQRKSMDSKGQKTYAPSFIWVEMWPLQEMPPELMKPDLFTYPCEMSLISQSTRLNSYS
The experiment in a line: hRXFP1 HEK293 cAMP assay (HTRF). Conditions: HEK293 cells stably expressing human RXFP1; 30 min at rt; intracellular cAMP by HTRF. In kind it is cell-based. An outline of the steps:
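HEK293 cells stably expressing human RXFP1 treated 30 min at rt with compound (0.010 nM to 50 μM, 2% DMSO) in HBSS/HEPES buffer with 0.5 mM IBMX. Intracellular cAMP measured by HTRF (665/590 nm ratio) against a cAMP standard curve; potency fitted by 4-parameter logistic.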
(In general: Changes in cAMP serve as a functional read-out for many G protein-coupled receptors.)
`COc1ccc(N2CCC(NCCO)C2)cc1C(=O)Nc1c(C(=O)Nc2ccc(F)c(C(F)(F)F)c2)sc2cc(C(F)(F)F)ccc12` (stereo not shown) [Example 66, N-(4-fluoro-3-(trifluoromethyl)phenyl)-3-(5-(3-((2-hydroxyethyl)amino)pyrrolidin-1-yl)-2-methoxy-benzamido)-6-(trifluoromethyl) benzo[b] thiophene-2-carboxamide] showed a half-maximal effective concentration (EC50) of 0.897 µM.
`COc1ccc(-c2cc(C(=O)O)ccc2F)cc1C(=O)Nc1c(C(=O)Nc2ccc(F)c(C(F)(F)F)c2)sc2ccccc12` [Example 15, 6-fluoro-3′-((2-((4-fluoro-3-(trifluoromethyl)phenyl)carbamoyl)benzo[b]thiophen-3-yl)carbamoyl)-4′-methoxy-[1, 1′-biphenyl]-3-carboxylic acid] registered an EC50 of 1.56 µM.
With `COc1ccc(C2CCN(C(=O)CC#N)C2)cc1C(=O)Nc1c(C(=O)Nc2ccc(F)c(C(F)(F)F)c2)sc2cc(C(F)(F)F)ccc12` (stereo not shown) [Example 146, 3-(5-(1-(2-cyanoacetyl)pyrrolidin-3-yl)-2-methoxy-benzamido)-N-(4-fluoro-3-(trifluoromethyl)phenyl)-6-(trifluoromethyl) benzo[b] thiophene-2-carboxamide], the EC50 worked out at 1.1 µM.
Under `COc1ccc(C2=NOC3CC(NC(=O)C(C)(C)O)CC23)cc1C(=O)Nc1c(C(=O)Nc2ccc(F)c(C(F)(F)F)c2)sc2cc(C(F)(F)F)ccc12` (single isomer, unassigned) [Example 265, N-[4-fluoro-3-(trifluoromethyl)phenyl]-3-{5-[5-(2-hydroxy-2-methyl-propanamido)-3aH,4H,5H,6H, 6aH-cyclopenta[d] [1,2]oxazol-3-yl]-2-methoxy-benzamido}-6-(trifluoromethyl)-1-benzothiophene-2-carboxamide] stands 1.14 µM.
Take `COc1ccc(C2CCCN(CC(N)=O)CC2)cc1C(=O)Nc1c(C(=O)Nc2ccc(F)c(C(F)(F)F)c2)sc2cc(C(F)(F)F)ccc12` (single isomer, unassigned) [Example 70, 3-(5-(1-(2-amino-2-oxoethyl)azepan-4-yl)-2-methoxy-benzamido)-N-(4-fluoro-3-(trifluoromethyl)phenyl)-6-(trifluoromethyl) benzo[b] thiophene-2-carboxamide]: the EC50 amounted to 0.0468 µM.
Turning to `COc1ccc(C2CCCN(CCCO)C2)cc1C(=O)Nc1c(C(=O)Nc2ccc(F)c(C(F)(F)F)c2)sc2cc(C(F)(F)F)ccc12` (stereo not shown) [Example 90, N-(4-fluoro-3-(trifluoromethyl)phenyl)-3-(5-(1-(3-hydroxypropyl)piperidin-3-yl)-2-methoxy-benzamido)-6-(trifluoromethyl) benzo[b] thiophene-2-carboxamide], the EC50 came out at 1.58 µM.
Turning to `COc1ccc(C(=O)NCCS(C)(=O)=O)cc1C(=O)Nc1c(C(=O)Nc2ccc(F)c(C(F)(F)F)c2)sc2cc(C(F)(F)F)ccc12` [Example 232, N3-(2-((4-fluoro-3-(trifluoromethyl)phenyl)carbamoyl)-6-(trifluoromethyl)benzo[b]thiophen-3-yl)-4-methoxy-N1-(2-(methylsulfonyl)ethyl) isophthalamide], a half-maximal response (EC50) required 4.84 µM.
On to `COc1ccc(C2CCCN(CCO)CC2)cc1C(=O)Nc1c(C(=O)Nc2ccc(F)c(C(F)(F)F)c2)sc2cc(C(F)(F)F)ccc12` (single isomer, unassigned) [Example 72, N-(4-fluoro-3-(trifluoromethyl)phenyl)-3-(5-(1-(2-hydroxyethyl)azepan-4-yl)-2-methoxy-benzamido)-6-(trifluoromethyl) benzo[b] thiophene-2-carboxamide], for which the EC50 came out at 4.31 µM.
Consider `COc1ccc(C(=O)N2CC[C@@H](O)C2)cc1C(=O)Nc1c(C(=O)Nc2ccc(F)c(C(F)(F)F)c2)sc2cc(C(F)(F)F)ccc12` [Example 175, (R)-N-(4-fluoro-3-(trifluoromethyl)phenyl)-3-(5-(3-hydroxy-pyrrolidine-1-carbonyl)-2-methoxy-benzamido)-6-(trifluoromethyl) benzo[b] thiophene-2-carboxamide], for which the EC50 came to 0.374 µM.
`COc1ccc(C2CC2C(=O)N2CC(C(C)(C)O)C2)cc1C(=O)Nc1c(C(=O)Nc2ccc(F)c(C(F)(F)F)c2)sc2cc(C(F)(F)F)ccc12` (stereo not shown) [Example 165, N-[4-fluoro-3-(trifluoromethyl)phenyl]-3-(5-{2-[3-(2-hydroxypropan-2-yl)azetidine-1-carbonyl]cyclopropyl}-2-methoxy-benzamido)-6-(trifluoromethyl)-1-benzothiophene-2-carboxamide] displayed an EC50 of 3.05 µM.
On to `COc1ccc(-c2cc(C(=O)O)ccc2F)cc1C(=O)Nc1c(C(=O)Nc2ccc(F)c(C(F)(F)F)c2)sc2ncccc12` [Example 289, 6-fluoro-3′-[(2-{[4-fluoro-3-(trifluoromethyl)phenyl]carbamoyl}thieno[2,3-b]pyridin-3-yl)carbamoyl]-4′-methoxy-[1,1′-biphenyl]-3-carboxylic acid], for which the EC50 was 2.05 µM.
Compound `COc1ccc(C2CCN(CC(N)=O)C2)cc1C(=O)Nc1c(C(=O)Nc2ccc(F)c(C(F)(F)F)c2)sc2cc(C(F)(F)F)ccc12` (stereo not shown) [Example 155, 3-{5-[1-(carbamoyl-methyl)pyrrolidin-3-yl]-2-methoxy-benzamido}-N-[4-fluoro-3-(trifluoromethyl)phenyl]-6-(trifluoromethyl)-1-benzothiophene-2-carboxamide] came in with an EC50 of 0.902 µM.
With `COc1ccc(C2CC2C(=O)N2CC(OC)C2)cc1C(=O)Nc1c(C(=O)Nc2ccc(F)c(C(F)(F)F)c2)sc2cc(C(F)(F)F)ccc12` (stereo not shown) [Example 163, N-[4-fluoro-3-(trifluoromethyl)phenyl]-3-{2-methoxy-5-[2-(3-methoxyazetidine-1-carbonyl)cyclopropyl]benzamido}-6-(trifluoromethyl)-1-benzothiophene-2-carboxamide] the figure was 0.662 µM; with `COc1ccc(S(=O)(=O)N2CCC[C@@H](N)C2)cc1C(=O)Nc1c(C(=O)Nc2ccc(F)c(C(F)(F)F)c2)sc2cc(C(F)(F)F)ccc12` [Example 30, (R)-3-(5-((3-aminopiperidin-1-yl)sulfonyl)-2-methoxybenzamido)-N-(4-fluoro-3-(trifluoromethyl)phenyl)-6-(trifluoromethyl) benzo[b]thiophene-2-carboxamide], 2.54 µM.
Under `COc1ccc(C(=O)N2CC(O)C2)cc1C(=O)Nc1c(C(=O)Nc2ccc(F)c(C(F)(F)F)c2)sc2cc(C(F)(F)F)ccc12` [Example 191, N-(4-fluoro-3-(trifluoromethyl)phenyl)-3-(5-(3-hydroxyazetidine-1-carbonyl)-2-methoxy-benzamido)-6-(trifluoromethyl) benzo[b] thiophene-2-carboxamide] stands 0.346 µM; under `COc1ccc(CCCO)cc1C(=O)Nc1c(C(=O)Nc2ccc(F)c(C(F)(F)F)c2)sc2cc(Cl)ncc12` [Example 200, 6-chloro-N-(4-fluoro-3-(trifluoromethyl)phenyl)-3-(5-(3-hydroxypropyl)-2-methoxy-benzamido) thieno[3,2-c]pyridine-2-carboxamide], 0.4 µM.
For the compound `COc1ccc(C2CCCN(C(=O)CO)C2)cc1C(=O)Nc1c(C(=O)Nc2ccc(F)c(C(F)(F)F)c2)sc2cc(C(F)(F)F)ccc12` (single isomer, unassigned) [Example 103, N-[4-fluoro-3-(trifluoromethyl)phenyl]-3-{5-[1-(2-hydroxyacetyl)piperidin-3-yl]-2-methoxy-benzamido}-6-(trifluoromethyl)-1-benzothiophene-2-carboxamide], it took 0.69 µM to reach a half-maximal effect (EC50).
`COc1ccc(C2=NOC(C)(CO)C2)cc1C(=O)Nc1c(C(=O)Nc2ccc(F)c(C(F)(F)F)c2)sc2cc(C(F)(F)F)ccc12` (single isomer, unassigned) [Example 253, N-(4-fluoro-3-(trifluoromethyl)phenyl)-3-(5-(5-(hydroxymethyl)-5-methyl-4,5-dihydroisoxazol-3-yl)-2-methoxy-benzamido)-6-(trifluoromethyl) benzo[b] thiophene-2-carboxamide] yielded an EC50 of 0.192 µM.
The compound `COc1ccc(C2CC3(C2)CN(CCS(C)(=O)=O)C3)cc1C(=O)Nc1c(C(=O)Nc2ccc(F)c(C(F)(F)F)c2)sc2cc(C(F)(F)F)ccc12` [Example 205, N-(4-fluoro-3-(trifluoromethyl)phenyl)-3-(2-methoxy-5-(2-(2-(methylsulfonyl)ethyl)-2-azaspiro[3.3]heptan-6-yl)benzamido)-6-(trifluoromethyl) benzo[b] thiophene-2-carboxamide] had an EC50 of 1.1 µM.
